The source of these data is patent US6610304B1, “Liposomes containing multiple branch peptide constructions for use against human immunodeficiency virus” (priority 1997, dated 2003).

The nature of data set [1]: Toxicity, intravenous injection into mice. In kind it is in vivo. The following applies: 50 mg/kg of SPC3, immediately, after 12 or 24 hours. As to the method: To determine toxicity, the 250 nm dialysed liposomes containing SPC3 were injected intravenously into 8 mice at a dose of 50 mg/kg of SPC3.
The next data set concerns HIV-1 Hx10 clone. Description: Fusion assay: inhibition of syncytium formation. Format: cell-based. To be noted: concentration 10^−6 M, C8166 cells. The procedure: C8166 cells were incubated at 37° C. with HIV-1 Hx10 clone (B. Hahn, University of Alabama, USA) in the presence of test substances (SPC3, SPC RL, empty liposomes of 110 nm and 250 nm average size, and dialysed and non-dialysed liposomes of those sizes containing SPC3) and in the absence of any test substance (control). The samples were inspected by phase contrast microscopy and syncytia were scored after 48 and 72 hours of incubation in 96-well flat-bottomed cultured plates. Experiments were performed three times in duplicate and identical results were obtained. The presence of syncytia is indicated by + signs. allocated as follows: […]

The subject of another data set is HIV-1 Hx10clone. Description: Infection assay: inhibition of cell infection (cell-free p24 by ELISA). In kind it is cell-based. The following applies: C8166 cells, supernatant ELISA, no unit or concentration given. The procedure: C8166 cells were washed once in RPMI medium and then infected with HIV-1 Hx10clone by incubation at 37° C. for 2 hours in the presence of test substances (SPC3, SPC RL, empty liposomes of 110 nm and 250 nm average size, and dialysed and non-dialysed liposomes of those sizes containing SPC3) and in the absence of any test substance (control). After incubation, the virus was removed and the cells were incubated with fresh medium at 37° C. in the presence of the test substances or in the absence of any test substance (control). Infections and cell cultures were in 96-well culture plates. The production of HIV was monitored by measuring the concentration of cell-free p24 in the supernatant by ELISA, as described by Gluschankof et al., 1997, using the AMPAK amplification kit (DAKO. Trappes, France). The results are shown in Table 2 below, and the day 4 results are also shown graphically in the accompanying drawing.
For orientation: ELISA stands for enzyme-linked immunosorbent assay.

For `C[C@H](NC(=O)[C@H](CCCNC(=N)N)NC(=O)CNC(=O)[C@@H]1CCCN1C(=O)CN)C(=O)N[C@@H](Cc1ccccc1)C(=O)NCCCC[C@H](NC(=O)[C@H](Cc1ccccc1)NC(=O)[C@H](C)NC(=O)[C@H](CCCNC(=N)N)NC(=O)CNC(=O)[C@@H]1CCCN1C(=O)CN)C(=O)NCCCC[C@H](NC(=O)[C@H](CCCCNC(=O)[C@H](Cc1ccccc1)NC(=O)[C@H](C)NC(=O)[C@H](CCCNC(=N)N)NC(=O)CNC(=O)[C@@H]1CCCN1C(=O)CN)NC(=O)[C@H](Cc1ccccc1)NC(=O)[C@H](C)NC(=O)[C@H](CCCNC(=N)N)NC(=O)CNC(=O)[C@@H]1CCCN1C(=O)CN)C(=O)NCCCC[C@H](NC(=O)[C@H](CCCCNC(=O)[C@H](CCCCNC(=O)[C@H](Cc1ccccc1)NC(=O)[C@H](C)NC(=O)[C@H](CCCNC(=N)N)NC(=O)CNC(=O)[C@@H]1CCCN1C(=O)CN)NC(=O)[C@H](Cc1ccccc1)NC(=O)[C@H](C)NC(=O)[C@H](CCCNC(=N)N)NC(=O)CNC(=O)[C@@H]1CCCN1C(=O)CN)NC(=O)[C@H](CCCCNC(=O)[C@H](Cc1ccccc1)NC(=O)[C@H](C)NC(=O)[C@H](CCCNC(=N)N)NC(=O)CNC(=O)[C@@H]1CCCN1C(=O)CN)NC(=O)[C@H](Cc1ccccc1)NC(=O)[C@H](C)NC(=O)[C@H](CCCNC(=N)N)NC(=O)CNC(=O)[C@@H]1CCCN1C(=O)CN)C(=O)NCCC(=O)O` [SPC3, (GPGRAF)8-(K)4-(K)2-K-βA-OH], the symptoms of toxicity result in data set [1] is on record as “symptoms of toxicity were observed”.

In the case of (RQGYSPL)8-(K)4-(K)2-K-βA-OH [SPC RL], the “Syncitia Formation” value in the data set with HIV-1 Hx10 clone (Day 2 post-infection) and with HIV-1 Hx10 clone (Day 3 post-infection) was “+/− (+/−=>95 % decrease)” each time. Besides, the p24 production in the data set with HIV-1 Hx10clone (Day 3 post-infection) is on record as 0.441; in the data set with HIV-1 Hx10clone (Day 4 post-infection), 0.463.
